According to PubChem BioAssay (NCI):
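All cell lines were grown in 96-well plates and treated with compound for 48 hours. The concentration for 50% growth inhibition is given as GI50. The concentration for full growth arrest is given as TGI.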

Assays:
Assay in all cases: NCI-60 cell line screen, 48 h
ACHN renal = test system: ACHN renal
HCT-15 colon = test system: HCT-15 colon
HOP-92 NSCLC = test system: HOP-92 NSCLC
LOX IMVI melanoma = test system: LOX IMVI melanoma
M14 melanoma = test system: M14 melanoma
SK-MEL-5 melanoma = test system: SK-MEL-5 melanoma
UACC-257 melanoma = test system: UACC-257 melanoma
UO-31 renal = test system: UO-31 renal
HL-60(TB) leukemia = test system: HL-60(TB) leukemia
SK-OV-3 ovarian = test system: SK-OV-3 ovarian

SMILES	TGI (ACHN renal) [µM]	TGI (HCT-15 colon) [µM]	TGI (HOP-92 NSCLC) [µM]	TGI (LOX IMVI melanoma) [µM]	TGI (M14 melanoma) [µM]	TGI (SK-MEL-5 melanoma) [µM]	TGI (UACC-257 melanoma) [µM]	TGI (UO-31 renal) [µM]	GI50 (ACHN renal) [µM]	GI50 (HL-60(TB) leukemia) [µM]	TGI (HL-60(TB) leukemia) [µM]	GI50 (HOP-92 NSCLC) [µM]	GI50 (LOX IMVI melanoma) [µM]	GI50 (M14 melanoma) [µM]	GI50 (SK-MEL-5 melanoma) [µM]	GI50 (SK-OV-3 ovarian) [µM]	TGI (SK-OV-3 ovarian) [µM]	GI50 (UACC-257 melanoma) [µM]	GI50 (UO-31 renal) [µM]
O=C1c2ccccc2C(=O)c2c(Nc3ccc4c5c(cccc35)C(=O)c3ccccc3-4)cccc21	> 100	> 100	> 100	> 100	> 100	> 100	> 100	> 100											
O=c1ccc2nc(-c3ccccc3)nn(-c3ccccn3)c-2c1	3.17		3.31	25.3	44.6	33.6	14.6	2.81	1.7	1.34	4.33	1.25	4.03	16.7	13.9	10.3	25	3.66	1.45
N#CN=C(N)NC(=O)/C=C/C=C/c1ccc(Cl)cc1	> 100	> 100	> 100	> 100	> 100	> 100	> 100	> 100			> 100						> 100		
CC(C)(C)N1C(C(=O)c2ccccc2)C1c1ccccc1 (stereo not given)		> 100	> 100	> 100	> 100	> 100	> 100				> 100						> 100		
CC(=O)OC(C)C1C2=C(C(=O)CC1(C)O)C(=O)c1c(ccc(-c3ccc4c(c3O)C(=O)C3=C(C4=O)C(C(C)OC(C)=O)C(C)(O)CC3=O)c1O)C2=O (stereo not given)	3.22	5.49	3.08	3.07	4.3	8.22	3.48	9.16			> 100						23.6		
N#CCCCC[N+]12CN3CN(CN(C3)C1)C2	> 100	> 100	> 100	> 100	> 100	> 100	> 100	> 100			> 100						> 100		
CC(C)(C)OC(=O)c1cnc(Cl)cn1	99.6	27.5	18.4	62.9	> 100	> 100	> 100	18.5									> 100		
Nc1nc(N)c2c(n1)NC(=O)c1c(c3ccccc3n1Cc1ccc(Cl)cc1)C2		35.6	20.4	56.4	> 100	28.6	> 100	> 100			39.4						45.4		
CC(C)=CCNc1ncnc2nc[nH]c12	> 100	> 100	> 100	> 100	> 100	> 100	> 100	> 100			> 100						> 100		
COc1ccc(C[C@H](N)C(=O)NC2C(CO)OC(n3cnc4c(N(C)C)ncnc43)C2O)cc1 (stereo not given in full)		11.9	0.591	0.288	1.77	0.847	1.67	7.89			0.442								
COC(=O)Nc1nc2cc(OC)c(OC)cc2c(=O)[nH]1	> 100	> 100			> 100	> 100	> 100	> 100			> 100						> 100		
N=C(c1ccc2ccccc2c1)c1ccccc1Cc1ccccc1	> 100	> 100	> 100	> 100	> 100	> 100	> 100	> 100			55.1						> 100		
CCOC(=O)C12CCC(=O)C=C1[C@@H](C)C(=O)CC2 (stereo not given in full)	> 100	> 100	> 100	> 100	> 100	> 100	> 100	> 100			> 100						> 100		
CSc1nc(Cl)c(Br)c(Sc2nc(N)nc3nc[nH]c23)n1	30.3	21.2	19.2		15.3	26.4	30	17			13.3								
NC(=O)C(N)=O	> 100	> 100	> 100	> 100	> 100	> 100	> 100	> 100			> 100						> 100		
O=C(CSc1nc2ccccc2s1)c1sc2sc3ccccc3[n+]2c1[O-]	> 100	> 100	> 100	> 100	> 100	> 100	> 100	> 100			> 100						> 100		
CC(C)c1cc(CN(C)C)c(O)c(C(C)(C)C)c1	32.3	63.3		32.5	78.5	29.9	29.2	58			15.1						> 100		
